{"source": "patent US7547519B2", "about": "“Methods of diagnosing multidrug resistant tuberculosis” (The United States of America as represented by the …, priority 2000, dated 2009)", "key": {"[1]": {"system": "MSm", "test": "microbe, parasite or virus in culture", "type": "cell-based, Mycobacterium smegmatis"}, "[2]": {"system": "MTb H37Rv", "conditions": "wild type MTb; cited from earlier work"}}}
{"compound": "CCc1cc(C(N)=S)ccn1", "note": "[ETA, ethionamide]", "values": [{"measurement": "concentration at which growth occurred", "setting": "[1]", "result": 50, "unit": "µg/mL"}, {"measurement": "concentration at which transformants were able to grow", "setting": "[1]", "result": "greater than 200 μg/ml"}, {"measurement": "concentration with noticeable growth inhibition", "setting": "[1]", "result": 2.5, "unit": "µg/mL"}, {"measurement": "MIC", "setting": "[1]; Mycolicibacterium smegmatis", "result": "> 62.5", "unit": "µg/mL"}, {"measurement": "MIC", "setting": "[2]", "result": 1.0, "unit": "µg/mL"}]}
{"compound": "CCc1cc(C(N)=S=O)ccn1", "note": "[ETA S-oxide]", "values": [{"measurement": "absolute MIC compared with ETA", "setting": "[1]", "result": "lower"}, {"measurement": "effect of EtaR/EtaA overexpression on susceptibility", "setting": "[1]", "result": "EtaR conferred resistance and EtaA conferred hypersensitivity"}]}
{"compound": "NNC(=O)c1ccncc1", "note": "[INH, isoniazid]", "values": [{"measurement": "susceptibility to killing", "setting": "[1]", "result": "equally susceptible"}]}
